Reference: patent publication US20230365643A1, “PEPTIDE, AND COSMETIC COMPOSITION AND PHARMACEUTICAL COMPOSITION COMPRISING SAME” (SEOUL NATIONAL UNIVERSITY HOSPITAL, priority 2020, published 2023)
Values after ≈ are worked out from the molar mass of the structure shown. Values belong to the molecule of their own block, whether it stands above or below them. Where a SMILES comes first, the peptide text is derived from it. [ ]: non-standard residue; d: D form.

Experiments:
[1] = Stability in mouse whole blood (LC-QTOF MS); assay type: in vitro ADME; settings: peptide 1 mg/ml; 0, 15, 30, 60, 120 minutes; compared to P5 control (FIG. 3)
Description: Mouse whole blood was treated with peptide (1 mg/ml) and reacted for 0, 15, 30, 60, and 120 minutes, followed by analyzing the peptides remaining as LC-QTOF MS.

[2] = Determination of solubility; assay type: physicochemical
Description: To 5 mg of each of the peptides synthesized by the above method, a small amount of water or butylene glycol was added to measure solubility.

C57BL/6 mice = test: Hair growth promoting efficacy in mice; assay type: in vivo, mouse; settings: lower back skin, once a day, after about 4 weeks; P5N 0.1 mM, P5 0.05 and 0.1 mM, MNX 3% (FIG. 11)
Text: It is known that all the hairs of a mouse go through a process in which the hair enters the resting phase at 7 to 8 weeks of age and is converted back to the growing phase. Accordingly, the effect of the peptide of the present invention on the growth phase inducing process was confirmed using C57BL/6 mice. Specifically, 3% of minoxidil (MNX), which is commonly used as a treatment for hair loss and hair growth, on the skin of the lower back of the mouse, the existing adiponectin-derived peptide […] NO: 2), […] and 0.1 mM), and the present peptide […] NO: 2)-NH2) were applied at 0.1 mM concentration, respectively, once a day. Thereafter, hair growth was investigated. As a result, in the group treated with the peptide of the present invention as in the positive controls, it was confirmed […], after about 4 weeks, a proportion of the region where hair was grown in the growth phase among the region where hair was first removed is increased (FIG. 11).

sensitive skin = test: Sensitive skin improvement, double-blind application study (lactate test, biopsy); assay type: in vivo, human; settings: for proportion of test group improved from sensitive skin to non-sensitive skin: 0.01%, 27 persons per group
Text: In order to classify patients with sensitive skin, a double-blind organ application study was executed by conducting the lactate puncture test (Contact Dermatitis 2010; 62: 137-49), which is the most widely used and known reliable test for diagnosis of sensitive skin (a total of 54 persons, the peptide of the present invention PSN: GLYYF(SEQ ID NO: 2)-NH2 (APNSN) 0.01% vs control (placebo), 27 persons per application group). From the volunteers who agreed to the biopsy (peptide PSN: GLYYF(SEQ ID NO: 2)-NH2 (APNSN) of the present invention 0.01% vs control material (placebo), 8 persons per application group), the skin tissues at the facial baseline and the skin tissues after 8 weeks application were obtained from total 4 sites (for 2 sites per each) by 2 mm punch. For the obtained skin tissues, quantitative PCR analysis and immunohistochemistry were performed for sensitive skin-related genes and markers including adiponectin. […] Further, at the second visit, it could be seen that 29.6% of the test group was improved from the sensitive skin to the non-sensitive skin. […] There was no significant difference between the above two groups (p=0.327, fisher's exact test). Further, at the 3rd visit, the initial sensitive skin improved to non-sensitive skin in 48.1% of the test group, whereas only 14.8% of the control improved to non-sensitive skin, which is the same as at the 2nd visit. […] Further, since the expression of adiponectin was reduced in the patients having sensitive skin, a change in adiponectin gene expression after APNSN treatment could be an important indicator of sensitivity improvement. Therefore, as a result of confirming the expression of adiponectin, the sub-signaling factor P-AMPK of adiponectin and the sensitivity inducing factor TRPV1 (FIG. 10) through biopsy, the expression adiponectin and P-AMPK was increased after application in the test group containing APNSN, whereas the expression of TRPV1 was decreased. […] On the other hand, there was no statistically significant change in the expression of adiponectin in the control after application of the control material.

[3] = water : butylene glycol mixture, Solvent H2O: BG, mixed solvent
[4] = Solvent BG (butylene glycol), single solvent
[5] = biopsy after application (FIG. 10)

Structure (SMILES): CC(C)C[C@H](N)C(=O)N[C@@H](Cc1ccc(O)cc1)C(=O)N[C@H](Cc1ccc(O)cc1)C(=O)N[C@@H](Cc1ccccc1)C(=O)O [Peptide P4-4, LYyF (SEQ ID NO: 1)] (H-LY[dY]F-OH; N-terminus assumed)
- stability (peptides remaining) [1]: improved stability

Structure (SMILES): CC(C)C[C@H](N)C(=O)N[C@@H](Cc1ccc(O)cc1)C(=O)N[C@@H](Cc1ccc(O)cc1)C(=O)N[C@H](Cc1ccccc1)C(=O)O [Peptide P4-5, LYYf (SEQ ID NO: 1)] (H-LYY[dF]-OH; N-terminus assumed)
- solubility ([2]; water, Solvent H2O, single solvent): 2500 µg/mL (≈ 4.13 mM)

Structure (SMILES): CC(C)C[C@@H](N)C(=O)N[C@@H](Cc1ccc(O)cc1)C(=O)N[C@@H](Cc1ccc(O)cc1)C(=O)N[C@@H](Cc1ccccc1)C(N)=O [Peptide P4-6, lYYF (SEQ ID NO: 1)-NH2] (H-[dL]YYF-NH2)
- solubility [2, 3]: 4000 µg/mL (≈ 6.63 mM)

Structure (SMILES): CC(C)C[C@H](N)C(=O)N[C@@H](Cc1ccc(O)cc1)C(=O)N[C@@H](Cc1ccc(O)cc1)C(=O)N[C@H](Cc1ccccc1)C(N)=O [Peptide P4-9, LYYf (SEQ ID NO: 1)-NH2] (H-LYY[dF]-NH2)
- solubility [2, 3]: 4000 µg/mL (≈ 6.63 mM)

Structure (SMILES): CC(C)C[C@H](NC(=O)CN)C(=O)N[C@@H](Cc1ccc(O)cc1)C(=O)N[C@@H](Cc1ccc(O)cc1)C(=O)N[C@@H](Cc1ccccc1)C(=O)O [Peptide P5, GLYYF (SEQ ID NO: 2), reference compound]
- proportion of the region where hair was grown in the growth phase (C57BL/6 mice): increased
- solubility ([2]; ethanol : propylene glycol mixture, Solvent EtOH: PG (propylene glycol), mixed solvent): 1000 µg/mL (≈ 1.51 mM)

Structure (SMILES): CC(C)C[C@@H](NC(=O)CN)C(=O)N[C@@H](Cc1ccc(O)cc1)C(=O)N[C@@H](Cc1ccc(O)cc1)C(=O)N[C@@H](Cc1ccccc1)C(=O)O [Peptide P5-1, GlYYF (SEQ ID NO: 2)]
- solubility [2, 4]: 3000 µg/mL (≈ 4.53 mM)

Structure (SMILES): CC(C)C[C@H](NC(=O)CN)C(=O)N[C@@H](Cc1ccc(O)cc1)C(=O)N[C@@H](Cc1ccc(O)cc1)C(=O)N[C@@H](Cc1ccccc1)C(N)=O [Peptide P5-5, GLYYF (SEQ ID NO: 2)-NH2]
- stability (peptides remaining) [1]: improved stability
- proportion of test group improved from sensitive skin to non-sensitive skin (sensitive skin; 2nd visit (4 weeks after application)): 29.6%
- proportion of test group improved from sensitive skin to non-sensitive skin (sensitive skin; 3rd visit (8 weeks after application)): 48.1%
- sensitive skin to non-sensitive skin in lactic acid test (sensitive skin; 2nd and 3rd visit (FIG. 9)): significantly improved
- expression of P-AMPK (sensitive skin; [5]): increased
- expression of TRPV1 (sensitive skin; [5]): decreased
- expression of adiponectin (sensitive skin; [5]): increased
- increase of expression of adiponectin compared to before application (sensitive skin; twice a day for 8 weeks, biopsy): more than 4 times
- proportion of the region where hair was grown in the growth phase (C57BL/6 mice): increased

The next lines start with the values.

- solubility [2, 3]: 3000 µg/mL (≈ 4.53 mM)
Structure (SMILES): CC(C)C[C@H](NC(=O)CN)C(=O)N[C@@H](Cc1ccc(O)cc1)C(=O)N[C@H](Cc1ccc(O)cc1)C(=O)N[C@@H](Cc1ccccc1)C(=O)O [Peptide P5-3, GLYyF (SEQ ID NO: 2)]

- solubility [2, 4]: 3000 µg/mL (≈ 4.53 mM)
Structure (SMILES): CC(C)C[C@H](NC(=O)CN)C(=O)N[C@@H](Cc1ccc(O)cc1)C(=O)N[C@@H](Cc1ccc(O)cc1)C(=O)N[C@H](Cc1ccccc1)C(=O)O [Peptide P5-4, GLYYf (SEQ ID NO: 2)]

- solubility [2, 4]: 3000 µg/mL (≈ 4.54 mM)
Structure (SMILES): CC(C)C[C@H](NC(=O)CN)C(=O)N[C@@H](Cc1ccc(O)cc1)C(=O)N[C@H](Cc1ccc(O)cc1)C(=O)N[C@@H](Cc1ccccc1)C(N)=O [Peptide P5-8, GLYyF (SEQ ID NO: 2)-NH2]
